The results in this text go back to patent publication US20190071416A1, “COMPOUNDS FOR TREATMENT OF CANCER AND EPIGENETICS” (Agency For Science, Technology and Research, priority 2015, published 2019).

This experiment deals with T1, SMYD3 (Homo sapiens, UniProt Q9H7B4).
T1 sequence (Q9H7B4 1-428): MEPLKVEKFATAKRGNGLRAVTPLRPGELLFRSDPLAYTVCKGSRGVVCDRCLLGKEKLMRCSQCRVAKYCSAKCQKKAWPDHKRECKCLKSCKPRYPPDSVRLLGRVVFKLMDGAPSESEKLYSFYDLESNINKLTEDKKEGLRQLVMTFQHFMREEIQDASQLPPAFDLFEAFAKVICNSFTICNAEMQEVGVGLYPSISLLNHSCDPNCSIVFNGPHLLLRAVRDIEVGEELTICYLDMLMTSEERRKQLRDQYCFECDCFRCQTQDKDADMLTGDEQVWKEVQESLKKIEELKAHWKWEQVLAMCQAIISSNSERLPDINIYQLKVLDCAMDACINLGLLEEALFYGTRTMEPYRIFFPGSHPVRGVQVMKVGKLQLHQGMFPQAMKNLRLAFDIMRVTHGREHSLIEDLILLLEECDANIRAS
The experiment is described as follows: SMYD3 biochemical assay (MTase-Glo, MAP3K2 peptide substrate). The following applies: Table 3; MTase assay, MAP3K2 peptide substrate; read-out: IC50. The procedure, abridged:
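Methylation of MAP3K2 peptide (10 µM final) with SAM (1.0 µM final) by SMYD3, 30 min at room temperature. SAH formed was enzymatically converted to ATP and detected as luminescence with MTase-Glo reagents; IC50 by non-linear regression.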
Take `CCCOC(=O)N1CCN(C(=O)c2ccc3c(Cl)c4c(nc3c2)CC(CC(N)=O)CC4)CC1` (centres unmarked) [A077, Propyl 4-(6-(2-amino-2-oxoethyl)-9-chloro-5,6,7,8-tetrahydroacridine-3-carbonyl)piperazine-1-carboxylate]: the IC50 (commonly the concentration needed to halve the response being measured) came out at 1200 nM.

As to `CCCOC(=O)N1CCN(C(=O)c2ccc3c(Cl)c4c(nc3c2)CCC(CC#N)C4)CC1` (centres unmarked) [A078, Propyl 4-(9-chloro-7-(cyanomethyl)-5,6,7,8-tetrahydroacridine-3-carbonyl)piperazine-1-carboxylate], the IC50 came to 280 nM. For `CCCOC(=O)N1CCN(C(=O)c2ccc3c(Cl)c4c(nc3c2)CCC(CC(N)=O)C4)CC1` (centres unmarked) [A079, Propyl 4-(7-(2-amino-2-oxoethyl)-9-chloro-5,6,7,8-tetrahydroacridine-3-carbonyl)piperazine-1-carboxylate], the IC50 turned out to be 430 nM. Then `CCCOC(=O)N1CC2CCCC1CN2C(=O)c1ccc2c(Cl)c3c(nc2c1)CCCC3` (centres unmarked) [A080, Propyl 8-(9-chloro-5,6,7,8-tetrahydroacridine-3-carbonyl)-6,8-diazabicyclo[3.2.2]nonane-6-carboxylate], with 170 nM; and `CCCOC(=O)N1CCN(C(=O)c2ccc3c(Cl)c4c(nc3c2)CCC(CCN)C4)[C@@H](C)C1` (stereo partly drawn) [A081, Propyl (3S)-4-(7-(2-aminoethyl)-9-chloro-5,6,7,8-tetrahydroacridine-3-carbonyl)-3-methylpiperazine-1-carboxylate], with 150 nM. On to `CCCOC(=O)N1CCN(C(=O)c2ccc3c(Cl)c4c(nc3c2)CCC(CCN(C)C)C4)[C@@H](C)C1` (stereo partly drawn) [A082, Propyl (3S)-4-(9-chloro-7-(2-(dimethylamino)ethyl)-5,6,7,8-tetrahydroacridine-3-carbonyl)-3-methylpiperazine-1-carboxylate], for which the IC50 was 510 nM. With `Cc1cc(C(=O)N2CCN(C(=O)c3ccc4c(Cl)c5c(nc4c3)CCCC5)[C@@H](C)C2)no1` [A083, (S)-(9-Chloro-5,6,7,8-tetrahydroacridin-3-yl)(2-methyl-4-(5-methylisoxazole-3-carbonyl)piperazin-1-yl)methanone], the IC50 amounted to 440 nM. As to `CCCOC(=O)N1CCN(C(=O)c2ccc3c(Cl)c4c(nc3c2)CCC(CC(=O)OC)C4)[C@@H](C)C1` (stereo partly drawn) [A084, Propyl (3S)-4-(9-chloro-7-(2-methoxy-2-oxoethyl)-5,6,7,8-tetrahydroacridine-3-carbonyl)-3-methylpiperazine-1-carboxylate], the IC50 stood at 120 nM.

`CCCOC(=O)N1CCN(C(=O)c2ccc3c(Cl)c4c(nc3c2)CCC(CC(=O)OC)C4)[C@H](C)C1` (stereo partly drawn) [A085, Propyl (3R)-4-(9-chloro-7-(2-methoxy-2-oxoethyl)-5,6,7,8-tetrahydroacridine-3-carbonyl)-3-methylpiperazine-1-carboxylate]: the half-maximal inhibitory concentration (IC50) was 160 nM. With `CCCOC(=O)N1CCN(C(=O)c2ccc3c(Cl)c4c(nc3c2)CC(c2ccccn2)CC4)[C@@H](C)C1` (stereo partly drawn) [A086, Propyl (3S)-4-(9-chloro-6-(pyridin-2-yl)-5,6,7,8-tetrahydroacridine-3-carbonyl)-3-methylpiperazine-1-carboxylate], the IC50 stood at 95 nM. Turning to `CCCOC(=O)N1CCN(C(=O)c2ccc3c(Cl)c4c(nc3c2)CC(c2ccccn2)CC4)[C@H](C)C1` (stereo partly drawn) [A087, Propyl (3R)-4-(9-chloro-6-(pyridin-2-yl)-5,6,7,8-tetrahydroacridine-3-carbonyl)-3-methylpiperazine-1-carboxylate], the IC50 stood at 56 nM. `CCCOC(=O)N1CCN(C(=O)c2ccc3c(Cl)c4c(nc3c2)CCC(Cc2noc(C)n2)C4)CC1` (centres unmarked) [A089, Propyl 4-(9-chloro-7-((5-methyl-1,2,4-oxadiazol-3-yl)methyl)-5,6,7,8-tetrahydroacridine-3-carbonyl)piperazine-1-carboxylate]: the IC50 worked out at 350 nM.

Consider `CCCOC(=O)N1CCN(C(=O)c2ccc3c(Cl)c4c(nc3c2)CC(CNC(=N)N)CC4)[C@@H](C)C1` (stereo partly drawn) [A090, Propyl (3S)-4-(9-chloro-6-(guanidinomethyl)-5,6,7,8-tetrahydroacridine-3-carbonyl)-3-methylpiperazine-1-carboxylate], for which the IC50 turned out to be 350 nM. Then `CCCOC(=O)N1CCN(C(=O)c2ccc3c(Cl)c4c(nc3c2)CC(CCNC(=N)N)CC4)[C@@H](C)C1` (stereo partly drawn) [A091, Propyl (3S)-4-(9-chloro-6-(2-guanidinoethyl)-5,6,7,8-tetrahydroacridine-3-carbonyl)-3-methylpiperazine-1-carboxylate], with 140 nM.

Take `CCCOC(=O)N1CCN(C(=O)c2ccc3c(Cl)c4c(nc3c2)CC(c2ccncc2)CC4)[C@@H](C)C1` (stereo partly drawn) [A092, Propyl (3S)-4-(9-chloro-6-(pyridin-4-yl)-5,6,7,8-tetrahydroacridine-3-carbonyl)-3-methylpiperazine-1-carboxylate]: the IC50 is 110 nM.

Regarding `CCCOC(=O)N1CCN(C(=O)c2ccc3c(Cl)c4c(nc3c2)CC(c2ccncc2)CC4)[C@H](C)C1` (stereo partly drawn) [A093, Propyl (3R)-4-(9-chloro-6-(pyridin-4-yl)-5,6,7,8-tetrahydroacridine-3-carbonyl)-3-methylpiperazine-1-carboxylate], the 50% inhibitory concentration (IC50) came to 100 nM. Consider `CCCOC(=O)N1CCN(C(=O)c2ccc3c(Cl)c4c(nc3c2)CC(c2ccc(F)cn2)CC4)CC1` (centres unmarked) [A094, Propyl 4-(9-chloro-6-(5-fluoropyridin-2-yl)-5,6,7,8-tetrahydroacridine-3-carbonyl)piperazine-1-carboxylate], for which the half-maximal inhibitory concentration (IC50) stood at 140 nM. `CCCOC(=O)N1CCN(C(=O)c2ccc3c(Cl)c4c(nc3c2)CC(c2ccc(F)cn2)CC4)[C@@H](C)C1` (stereo partly drawn) [A095, Propyl (3S)-4-(9-chloro-6-(5-fluoropyridin-2-yl)-5,6,7,8-tetrahydroacridine-3-carbonyl)-3-methylpiperazine-1-carboxylate]: the IC50 amounted to 110 nM.

As for `CCCOC(=O)N1CCN(C(=O)c2ccc3c(Cl)c4c(nc3c2)CC(c2ncccc2C)CC4)CC1` (centres unmarked) [A096, Propyl 4-(9-chloro-6-(3-methylpyridin-2-yl)-5,6,7,8-tetrahydroacridine-3-carbonyl)piperazine-1-carboxylate], the IC50 is 1200 nM. In the case of `CCCOC(=O)N1CCN(C(=O)c2ccc3c(Cl)c4c(nc3c2)CC(c2ccc(F)cn2)CC4)C[C@@H]1C` (stereo partly drawn) [A097, Propyl (2S)-4-(9-chloro-6-(5-fluoropyridin-2-yl)-5,6,7,8-tetrahydroacridine-3-carbonyl)-2-methylpiperazine-1-carboxylate], the IC50 amounted to 170 nM. Turning to `CCCOC(=O)N1CCN(C(=O)c2ccc3c(Cl)c4c(nc3c2)CC(c2ccc(F)cn2)CC4)C[C@H]1C` (stereo partly drawn) [A098, Propyl (2R)-4-(9-chloro-6-(5-fluoropyridin-2-yl)-5,6,7,8-tetrahydroacridine-3-carbonyl)-2-methylpiperazine-1-carboxylate], the IC50 is 150 nM. `CCCOC(=O)N1CCN(C(=O)c2ccc3c(Cl)c4c(nc3c2)CC(c2ncccc2F)CC4)CC1` (centres unmarked) [A099, Propyl 4-(9-chloro-6-(3-fluoropyridin-2-yl)-5,6,7,8-tetrahydroacridine-3-carbonyl)piperazine-1-carboxylate]: the IC50 is 590 nM.

Regarding `CCCOC(=O)N1CCN(C(=O)c2ccc3c(Cl)c4c(nc3c2)CC(c2ncccc2F)CC4)[C@@H](C)C1` (stereo partly drawn) [A100, Propyl (3S)-4-(9-chloro-6-(3-fluoropyridin-2-yl)-5,6,7,8-tetrahydroacridine-3-carbonyl)-3-methylpiperazine-1-carboxylate], the IC50 is 570 nM. For `CCCOC(=O)N1CCN(C(=O)c2ccc3c(Cl)c4c(nc3c2)CC(c2ncccc2C)CC4)[C@@H](C)C1` (stereo partly drawn) [A101, Propyl (3S)-4-(9-chloro-6-(3-methylpyridin-2-yl)-5,6,7,8-tetrahydroacridine-3-carbonyl)-3-methylpiperazine-1-carboxylate], the IC50 worked out at 1700 nM. Then `CCCOC(=O)N1CCN(C(=O)c2ccc3c(Cl)c4c(nc3c2)CC(CN)CC4)[C@H](C)C1` (stereo partly drawn) [A102, Propyl (3R)-4-(6-(aminomethyl)-9-chloro-5,6,7,8-tetrahydroacridine-3-carbonyl)-3-methylpiperazine-1-carboxylate], with 230 nM.

In the case of `CCCOC(=O)N1CCN(C(=O)c2ccc3c(Cl)c4c(nc3c2)CC(Cc2ccccn2)CC4)CC1` (centres unmarked) [A103, Propyl 4-(9-chloro-6-(pyridin-2-ylmethyl)-5,6,7,8-tetrahydroacridine-3-carbonyl)piperazine-1-carboxylate], the IC50 is 390 nM. Consider `CCCOC(=O)N1CCN(C(=O)c2ccc3c(Cl)c4c(nc3c2)CC(c2ccnc(C)c2)CC4)CC1` (centres unmarked) [A104, Propyl 4-(9-chloro-6-(2-methylpyridin-4-yl)-5,6,7,8-tetrahydroacridine-3-carbonyl)piperazine-1-carboxylate], for which the IC50 is 83 nM.

As for `CCCOC(=O)N1CCN(C(=O)c2ccc3c(Cl)c4c(nc3c2)CC(CCN(C)C)CC4)CC1` (centres unmarked) [A105, Propyl 4-(9-chloro-6-(2-(dimethylamino)ethyl)-5,6,7,8-tetrahydroacridine-3-carbonyl)piperazine-1-carboxylate], the IC50 is 90 nM. Then `CCCOC(=O)N1CCN(C(=O)c2ccc3c(Cl)c4c(nc3c2)CC(c2ccc(F)cn2)CC4)[C@H](C)C1` (stereo partly drawn) [A106, Propyl (3R)-4-(9-chloro-6-(5-fluoropyridin-2-yl)-5,6,7,8-tetrahydroacridine-3-carbonyl)-3-methylpiperazine-1-carboxylate], with 41 nM.
